Results on 12 compounds are retold here after PubChem BioAssay (NCI).

The structures appear in SMILES notation. “And” between values parts separate entries of the source, which are not always exact repeats. Equal values may be shown once.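 1) Cells in 96-well plates. 2) Compound, 48 h, 5 concentrations. 3) Linear interpolation between surrounding doses. 4) Unreached endpoint = highest concentration. The concentration for 50% growth inhibition is given as GI50. TGI: concentration producing complete growth inhibition.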 A value given as a limit tells only on which side of the number the result lay.

Holding throughout (assay): inhibition of tumour cell growth, NCI panel, 48 h
In experiment [1] the test system is HCT-116 colon.
Experiment [2] relates to HCC-2998 colon.
For experiment [3], the system named is SK-OV-3 ovarian.
The subject of experiment [4] is SF-539 CNS.
Experiment [5] concerns LOX IMVI melanoma.
Experiment [6] deals with UACC-62 melanoma.
The subject of experiment [7] is SW-620 colon.
The subject of experiment [8] is OVCAR-8 ovarian.
The subject of experiment [9] is ACHN renal.
Experiment [10] deals with HCT-15 colon.

Take `CC1SC(c2ccc(OCc3ccccc3)cc2)N(NC(=O)C(O)(c2ccccc2)c2ccccc2)C1=O` (stereo unspecified): the GI50 in experiment [1] is 1.76 µM; in experiment [2], 1.92 µM; in [3], 9.49 µM; in [4], 14 µM; in [5], 3.87 µM; in [6], 3.69 µM. The GI50 in [7] is 3.61 µM; in [8] it was 12.7 µM; in experiment [9] it was 2.74 µM; in experiment [10] it was 2.74 µM. Besides, the TGI in [1] worked out at 4.71 µM; in experiment [2], 4.99 µM; in [3], 33.2 µM; in [4] it was 42.6 µM; in [5], 14.6 µM; in experiment [6], 16 µM. For the same compound, the TGI worked out at 12.7 µM in experiment [7], 38.6 µM in [8], 9.38 µM in experiment [9] and 12.7 µM in experiment [10].
In the case of `O=C1N(c2ccccc2)C2(O)C(=O)c3ccccc3C2(O)N1c1ccccc1` (stereo unspecified), the TGI in experiment [1], in [2], in experiment [3], in experiment [4], in experiment [5] and in experiment [6] was above 100 µM throughout. The TGI in experiment [7], in [8], in [9] and in experiment [10] was above 100 µM throughout.
On to `COc1cc(F)c(F)c(F)c1C(=O)c1cnc(NC2CCN(S(C)(=O)=O)CC2)nc1N`, for which the GI50 in [1] was 0.56 µM; in [2] it was 2.87 µM; in [3] it was 11.6 µM; in experiment [4], 1.24 µM; in [5] it was 1.04 µM; in experiment [6], 1.49 µM. For the same compound, the GI50 in experiment [7] is 0.409 µM; in experiment [8], 2.28 µM; in experiment [9] it was 0.906 µM; in [10], 1.32 µM. Moreover, the TGI was above 25 µM in [1]; above 21.6 µM in [2]; above 25 µM in experiment [3]; 6.06 µM in [4]; above 13 µM in experiment [5]; 7.98 µM in [6]. For the same compound, the TGI in [7], in experiment [8], in experiment [9] and in experiment [10] was above 25 µM throughout.
Take `CC1(C)OC2OC(/C=C/[N+](=O)[O-])C3OC(C)(C)OC3C2O1` (stereo unspecified): the TGI came out at 23 µM in [1]; 31.1 µM in [2]; 34.8 µM in experiment [3]; 28.3 µM in experiment [4]; 22.1 µM in experiment [5]; 28.6 µM in experiment [6]. For the same compound, the TGI in experiment [7] was determined as 9.46 µM; in experiment [8], 40.9 µM; in experiment [9], 28.8 µM; in experiment [10] it was 5.43 µM.
In the case of `NC1=Nc2cc(OCCCCN3Cc4ccccc4C3)c(OCC3CC3)cc2C12CCCC2`, the GI50 in experiment [1] was 1.2 µM; in experiment [2], 1.57 µM; in [3] it was 1.89 µM; in experiment [4], 1.53 µM; in experiment [5] it was 1.69 µM; in [6], 1.69 µM. In addition, the GI50 was 1.7 µM in experiment [7], 1.8 µM in [8], 1.71 µM in experiment [9] and 1.48 µM in [10]. Besides, the TGI in [1] stood at 2.56 µM; in experiment [2], 3.07 µM; in experiment [3], 3.9 µM; in experiment [4] it was 2.91 µM; in experiment [5], 3.09 µM; in experiment [6] it was 3.11 µM. Also, the TGI worked out at 3.48 µM in [7], 4.02 µM in experiment [8], 3.24 µM in [9] and 3.59 µM in experiment [10].
Consider `N#CCC1CCN(c2nc(Nc3ccc(N4CCC(O)CC4)cc3)c3c(=O)[nH]ncc3n2)CC1`, for which the GI50 is 0.345 µM in experiment [1]; 1.71 µM in experiment [2]; 0.267 µM in experiment [3]; 0.869 µM in experiment [4]; 0.489 µM in [5]; above 100 µM in experiment [6]. The GI50 in experiment [7] is 0.443 µM; in experiment [8], 8.08 µM; in experiment [9], 0.473 µM; in experiment [10], 0.428 µM. Also, the TGI in experiment [1] was above 100 µM; in experiment [2] it was above 100 µM; in [3] it was 1.88 µM; in experiment [4], 2.82 µM; in experiment [5], above 100 µM; in experiment [6], above 100 µM. Besides, the TGI in [7], in experiment [8], in experiment [9] and in [10] was above 100 µM throughout.
Regarding `O=C(/C=C/c1ccccc1)c1ccccn1`, the GI50 in experiment [1] was 6.9 µM and 15.4 µM. Further, the TGI in experiment [1] was 19.4 µM and 30.3 µM; in [2], 26.7 µM and 35.8 µM; in [3] it was 67 µM and > 100 µM; in experiment [4], 42.4 µM; in experiment [5] it was 23.9 µM and 34.8 µM; in experiment [6], 36.8 µM and 41.4 µM. In addition, the TGI in experiment [7] is 58.9 µM and > 100 µM; in experiment [8] it was 34.6 µM and > 100 µM; in experiment [9], 28.9 µM and 31 µM; in [10] it was 24.9 µM and 50 µM.
Take `O=C1Nc2ccc(I)cc2/C1=C/c1cc(Br)c(O)c(Br)c1`: the GI50 in experiment [1] is > 17.2 µM and 15.2 µM; in [2] it was 24.5 µM and 16.3 µM; in [3], > 25 µM and 17.9 µM; in experiment [4], > 20.2 µM and 14.1 µM; in experiment [5] it was > 17.5 µM and 16.2 µM; in experiment [6], 11.5 µM and 8.43 µM. In addition, the GI50 in experiment [7] was 24.8 µM and 22 µM; in [8], > 25 µM and 23.8 µM; in experiment [9], > 19.8 µM and 21.8 µM; in [10] it was > 16 µM and 17.2 µM. Also, the TGI in experiment [1] was > 25 µM and 32.8 µM; in [2], > 25 µM and 33.6 µM; in experiment [3] it was > 25 µM and 47.5 µM; in experiment [4], > 25 µM and 43.8 µM; in experiment [5], above 79 µM; in [6], > 25 µM and 29.6 µM. Besides, the TGI was > 25 µM and 51.1 µM in experiment [7]; above 96.5 µM in experiment [8]; above 85.8 µM in [9]; above 65.8 µM in experiment [10].
In the case of `Nc1c2ccccc2nc2ccccc12`, the GI50 in [1] was 0.702 µM and 2.17 µM; in experiment [2] it was 1.81 µM; in [3] it was 2.18 µM and 3.22 µM; in experiment [4], 2.56 µM and 4.87 µM; in experiment [5] it was 1.77 µM and 1.69 µM; in experiment [6], 1.51 µM and 2.42 µM. Also, the GI50 is 1.06 µM and 3.06 µM in experiment [7]; 0.626 µM and 3.53 µM in experiment [8]; 0.669 µM and 1.89 µM in experiment [9]; 1.95 µM and 2.27 µM in experiment [10]. Moreover, the TGI is 8.31 µM and 10.5 µM in [1]; 3.93 µM in experiment [2]; 9.21 µM and 22 µM in experiment [3]; 7.93 µM and 16.2 µM in experiment [4]; 5.12 µM and 3.5 µM in [5]; 3.45 µM and 6.88 µM in experiment [6]. For the same compound, the TGI in [7] was 5.95 µM and 22.6 µM; in experiment [8], 5.14 µM and 34.3 µM; in [9], 8.61 µM and 7.19 µM; in [10] it was 11.1 µM and 7.23 µM.
In the case of `Nc1ncnc2c1ncn2C1SC(CO)C(O)C1O` (stereo unspecified), the GI50 was 13.5 µM in experiment [1]; 11.9 µM in [2]; 17.3 µM in [3]; 19.7 µM in experiment [4]; 18.5 µM in experiment [5]; above 100 µM in experiment [6]. Moreover, the GI50 in experiment [7] was 17.5 µM; in [8], 4 µM; in experiment [9], 31.8 µM; in experiment [10], 3.81 µM. For the same compound, the TGI in [1] was 50.3 µM; in experiment [2] it was 34.5 µM; in experiment [3], 59.6 µM; in experiment [4], 50.1 µM; in experiment [5], 48.4 µM; in [6], above 100 µM. The TGI in [7] is 77.2 µM; in experiment [8] it was 23.6 µM; in experiment [9], above 100 µM; in experiment [10] it was 31.8 µM.
`O=C(/C=C/c1c[nH]c2ccccc12)c1ccccc1O`: the TGI is 26 µM in experiment [1]; 27.1 µM in experiment [2]; 33 µM in experiment [3]; 25.1 µM in experiment [4]; 21.7 µM in experiment [5]; 21 µM in experiment [6]. The TGI amounted to 59.7 µM in experiment [7], 39.2 µM in [8], 25.2 µM in [9] and 21.7 µM in experiment [10].
Consider `COc1cccc(-c2cc(-c3ccc(Nc4nc(Nc5ccc(Cl)cc5)nc(Nc5ccc(Cl)cc5)n4)cc3)nc(N)c2C#N)c1`, for which the GI50 in experiment [1] was 1.6 µM; in [2] it was 2.11 µM; in experiment [3], 24.9 µM; in experiment [4], 1.69 µM; in experiment [5], 2.22 µM; in experiment [6], 14.6 µM. Also, the GI50 in experiment [7] was 2.41 µM; in [8], 3.51 µM; in experiment [9], 1.98 µM; in [10], 2.46 µM. Moreover, the TGI is 3.53 µM in experiment [1]; 5.54 µM in [2]; above 63.9 µM in experiment [3]; 4.1 µM in [4]; 6.44 µM in [5]; 37.8 µM in experiment [6]. The TGI is 5.64 µM in [7], above 100 µM in experiment [8], 4.5 µM in experiment [9] and above 24.2 µM in experiment [10].
